PMC10216478, “Development of a Non-Peptide Angiotensin II Type 1 Receptor Ligand by Structural Modification of Olmesartan as a Biased Agonist” (Biomedicines, 2023)
Substitutions are numbered along the chain they refer to.

Key:
Settings in all cases: competition with 125I-[Sar1,Ile8]Ang II, n = 3, mean ± standard error, read-out: Binding affinity (Kd)
AT1 wild-type receptor = target: T1, AT1 wild-type receptor (Rattus norvegicus, UniProt P25095); experiment: Competition binding study, 125I-[Sar1,Ile8]Ang II, AT1 wild-type receptor
T1 construct: expressed in transfected cells; host or cells: COS7
T1 sequence (P25095 1-359): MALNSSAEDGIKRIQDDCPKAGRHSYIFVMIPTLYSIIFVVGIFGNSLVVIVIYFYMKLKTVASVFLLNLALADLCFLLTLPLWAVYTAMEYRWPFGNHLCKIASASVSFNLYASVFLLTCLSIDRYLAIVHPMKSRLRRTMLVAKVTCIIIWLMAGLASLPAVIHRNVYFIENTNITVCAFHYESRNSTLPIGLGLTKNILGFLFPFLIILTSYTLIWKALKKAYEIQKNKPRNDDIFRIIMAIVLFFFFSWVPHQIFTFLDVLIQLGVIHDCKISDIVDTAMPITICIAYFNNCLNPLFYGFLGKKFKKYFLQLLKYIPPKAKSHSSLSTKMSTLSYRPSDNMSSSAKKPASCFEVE
Protocol: (§1) The synthetic rat AT1 receptor gene, which was cloned in the shuttle expression vector pMT-2, was used for expression and mutagenesis, as described previously. COS7 cells (No. CRL-1651, ATCC, Manassas, VA, USA) were cultured in 10% fetal bovine serum (FBS) and penicillin- and streptomycin-supplemented Dulbecco’s modified Eagle’s essential medium (PS-DMEM) in 5% CO2 at 37 °C. In the experiments, cells were grown without a cell-growth supplement. To express the AT1 receptor protein, 10 µg of purified plasmid DNA per 10^7 cells was used in the transfection. […] We then analyzed the parameters in transfected cells. […]
(§2) The Kd (nM) values of receptor binding were determined with ^125I-[Sar^1, Ile^8]AngII-binding experiments under equilibrium conditions. Binding kinetics were determined following the methods described in the literature. […] Ang II was determined in the presence of a high concentration (10^−6 M) of unlabeled [Sar^1, Ile^8]. […] The radioactivity trapped on the filters was quantified using an automatic γ-counter. The percentage (%) of specific binding of ^125I-[Sar^1, Ile^8]Ang II was calculated using the following formula: 100 × (% total binding of ^125I-[Sar^1, Ile^8]Ang II—nonspecific binding of ^125I-[Sar^1, Ile^8]Ang II)/(% total binding of ^125I-[Sar^1, Ile^8]Ang II).

AT1 Y292A receptor = target: T2, AT1 Y292A receptor (Rattus norvegicus, UniProt P25095, Y292A); experiment: Competition binding study, 125I-[Sar1,Ile8]Ang II, AT1 Y292A receptor
T2 construct: expressed in transfected cells; host or cells: COS7
T2 sequence (P25095 1-359 Y292A): T1 sequence (P25095 1-359) with Y292A
Excerpt: (§3) We mutated four amino acids in transmembrane (TM) III, VI, and VII in the AT1 receptor (L112A, Q257A, Y292A, and N295A receptors). We determined the mutation sites of the AT1 receptor according to ARB, which produced olmesartan derivatives with different interactions and functions toward the AT1 receptor, as previously reported by Zhang et al., since the additional 4-hydroxybenzyl groups of R781253 and R794847 were predicted to extend to a sub-pocket on the bottom of the AT1 receptor ligand-binding pocket consisting of Leu^112 and Gln^257. In addition, since the biased ligand TRV027 induced changes near the NPxxY motif in TM domain 7 that are related to receptor activation, Tyr^292 and Asn^295 in the AT1 receptor were mutated.
(§4) The synthetic rat AT1 receptor gene, which was cloned in the shuttle expression vector pMT-2, was used for expression and mutagenesis, as described previously. COS7 cells (No. CRL-1651, ATCC, Manassas, VA, USA) were cultured in 10% fetal bovine serum (FBS) and penicillin- and streptomycin-supplemented Dulbecco’s modified Eagle’s essential medium (PS-DMEM) in 5% CO2 at 37 °C. In the experiments, cells were grown without a cell-growth supplement. To express the AT1 receptor protein, 10 µg of purified plasmid DNA per 10^7 cells was used in the transfection. Wild-type and mutated AT1 receptors were transiently transfected into cells using Lipofectamine 2000 liposomal reagent (Roche Applied Science, Penzberg, Germany). Cells were plated and grown and were 70–90% confluent at the time of transfection. We incubated plasmid DNA (10 µg)–lipid (10 µL) complexes for 5 min at room temperature and added and incubated the complexes with cells for 24 h. We then analyzed the parameters in transfected cells. Cell viability was >95% according to trypan blue exclusion analysis in the control experiments. Transfected cells that had been cultured for 48–72 h were harvested. Cell membranes were prepared using the nitrogen Parr bomb disruption or freeze–thaw methods.
(§5) The Kd (nM) values of receptor binding were determined with ^125I-[Sar^1, Ile^8]AngII-binding experiments under equilibrium conditions. Binding kinetics were determined following the methods described in the literature. We carried out binding by using ^125I-[Sar^1, Ile^8] AngII (2200 Ci/mmol) and an increasing concentration (10^−11–10^−5 M) of each unlabeled compound. Nonspecific binding of ^125I-[Sar^1, Ile^8] Ang II was determined in the presence of a high concentration (10^−6 M) of unlabeled [Sar^1, Ile^8]. Next, the incubation mixture was separated by vacuum filtration through Whatman GF/C glass filters (Disposable Filter Funnels Grade GF/C, GE Healthcare), and presoaked with 0.1% polyethylenimine. The filter was washed with 3 mL of ice-cold stop buffer (25 mM Tris–HCl, pH 7.4, 1 mM MgCl2). The radioactivity trapped on the filters was quantified using an automatic γ-counter. The percentage (%) of specific binding of ^125I-[Sar^1, Ile^8]Ang II was calculated using the following formula: 100 × (% total binding of ^125I-[Sar^1, Ile^8]Ang II—nonspecific binding of ^125I-[Sar^1, Ile^8]Ang II)/(% total binding of ^125I-[Sar^1, Ile^8]Ang II).

AT1 Q257A receptor = target: T3, AT1 Q257A receptor (Rattus norvegicus, UniProt P25095, Q257A); experiment: Competition binding study, 125I-[Sar1,Ile8]Ang II, AT1 Q257A receptor
T3 construct: expressed in transfected cells; host or cells: COS7
T3 sequence (P25095 1-359 Q257A): T1 sequence (P25095 1-359) with Q257A
Excerpt: as §3, §4, §5

AT1 L112A receptor = target: T4, AT1 L112A receptor (Rattus norvegicus, UniProt P25095, L112A); experiment: Competition binding study, 125I-[Sar1,Ile8]Ang II, AT1 L112A receptor
T4 construct: expressed in transfected cells; host or cells: COS7
T4 sequence (P25095 1-359 L112A): T1 sequence (P25095 1-359) with L112A
Excerpt: as §3, §1, §2

AT1 N295A receptor = target: T5, AT1 N295A receptor (Rattus norvegicus, UniProt P25095, N295A); experiment: Competition binding study, 125I-[Sar1,Ile8]Ang II, AT1 N295A receptor
T5 construct: expressed in transfected cells; host or cells: COS7
T5 sequence (P25095 1-359 N295A): T1 sequence (P25095 1-359) with N295A
Excerpt: as §3, §4, §5

## CC[C@H](C)[C@H](NC(=O)[C@@H]1CCCN1C(=O)[C@H](Cc1c[nH]cn1)NC(=O)[C@@H](NC(=O)[C@H](Cc1ccc(O)cc1)NC(=O)[C@@H](NC(=O)[C@H](CCCN=C(N)N)NC(=O)CNC)C(C)C)[C@@H](C)CC)C(=O)O [[Sar^1,Ile^8]Ang II, [Sar^1, Ile^8]Ang II, reference compound]
AT1 wild-type receptor
  Kd: 0.8 ± 0.4 nM
AT1 Y292A receptor
  Kd: 2.1 ± 0.9 nM
AT1 Q257A receptor
  Kd: 3.3 ± 1.5 nM
AT1 L112A receptor
  Kd: 1.3 ± 0.3 nM
AT1 N295A receptor
  Kd: 7 ± 2 nM
